Reference: publication PMC9039011, “Novel β-Cyclodextrin-Based Heptavalent Glycyrrhetinic Acid Conjugates: Synthesis, Characterization, and Anti-Influenza Activity” (Frontiers in Chemistry, 2022)

Legend:
[1] = Cytotoxicity assay (CellTiter-Glo cell viability); conditions: dog
MDCK cells = experiment: Cytotoxicity assay (CellTiter-Glo cell viability); conditions: dose-dependent, 10 and 25 μM
HA = biological target: HA; set-up: method as in Sauter et al., 1989; conditions: monovalent interaction; ref Sauter et al., 1989; read-out: dissociation constant (KD); cited from earlier work

Q: With `CC1(C)[C@@H](O)CC[C@]2(C)[C@H]3C(=O)C=C4[C@@H]5C[C@@](C)(C(=O)O)CC[C@]5(C)CC[C@@]4(C)[C@]3(C)CC[C@@H]12` [Compound 2, glycyrrhetinic acid] as the compound, how does the CC50 at 48 h ([1]; MDCK cells) read?
A: The CC50 at 48 h was 85 ± 6.8 µM.

Q: What about the viability at 48 h, 25 µM ([1]; MDCK cells (uninfected)) of the same compound?
A: The viability at 48 h, 25 µM was 82.8%.

Q: Which “viability of MDCK cells (words, positive control)” value (MDCK cells) does the source give for `CC(=O)O[C@H]1C(=O)[C@@]2(C)[C@H]([C@H](OC(=O)c3ccccc3)[C@]3(O)C[C@H](OC(=O)[C@H](O)[C@@H](NC(=O)c4ccccc4)c4ccccc4)C(C)=C1C3(C)C)[C@]1(OC(C)=O)CO[C@@H]1C[C@@H]2O` [PTX, paclitaxel] here?
A: Its value is “decrease in the viability”.

Q: For `CC(=O)N[C@H]1[C@H]([C@H](O)[C@H](O)CO)OC(O)(C(=O)O)C[C@@H]1O` (stereo partly shown) [sialic acid], which Kd (HA) is on record?
A: The Kd was ~2000 µM.
